Patent US10933053B2, “Treating infections with ceftolozane/tazobactam in subjects having impaired renal function” (MERCK SHARP & DOHME CORP., priority 2013, dated 2021)
Each block holds one molecule with its values, some of them ahead of it.

Tests used:
clinical = settings: for Cmax: mean (CV %); for Tmax: median (minimum, maximum)
Source text: The intravenous formulation of CXA-201 can be prepared by reconstituting a fixed dose combination mixture of two active components (ceftolozane and tazobactam), and intravenously administering the reconstituted pharmaceutical composition. The pharmacokinetic (PK) profile of ceftolozane/tazobactam has been studied in several preclinical and clinical studies.
The pharmacokinetic (PK) profile of ceftolozane/tazobactam has been studied in several preclinical and clinical studies.

[1] = Binding to human plasma proteins; assay type: in vitro ADME; settings: human, plasma; value used in Monte Carlo simulation; read-out: unbound fraction (Fu)
[2] = Population PK model of ceftolozane and tazobactam (healthy volunteers, renal impairment, cUTI/cIAI patients); settings: for CLd, population estimate: intercompartmental clearance; for Vc (L)^d, population estimate: peripheral volume of distribution per footnote
Protocol: A population-PK analysis was performed on plasma ceftolozane and tazobactam concentration-time data from adult subjects enrolled in 10 studies. Subjects were included from multiple sites and all studies were performed in accordance with the International Conference on Harmonization guidelines on good clinical practice and the Declaration of Helsinki. An investigational review board approved the study protocols at each site.
Serum concentration data were analyzed from 5 studies in healthy volunteers (n=184), 3 studies in subjects with varying degrees of renal impairment (n=42), and 2 phase 2 studies in patients with bacterial infections (cUTIs [n=73] and cIAIs [n=77]). In all studies, ceftolozane was administered as a 1-hour intravenous infusion either alone or in combination with tazobactam at a fixed 2:1 ratio (ceftolozane:tazobactam). […] In the phase 2 trials, cUTI patients received ceftolozane alone 1000 mg (q8h) and cIAI patients received ceftolozane/tazobactam 1000/500 mg (q8h).
All subjects who received at least 1 dose of study medication and had at least 1 measurement of ceftolozane or tazobactam were included (N=376). Plasma concentrations of ceftolozane and tazobactam were determined by a validated liquid-chromatography-tandem mass spectrometry assay (MicroConstants, Inc., San Diego, Calif.) described previously. Concentrations below the limit of quantitation (BLQ), as defined previously, were considered as missing. No substitutions were made to account for these missing data points.
Base model development. The model was developed in 2 stages: a preliminary PK model was developed based on datasets from 3 studies. In the current analysis, the structural model was refined using the PK data from 10 studies (including patients with cUTI or cIAI) and the covariate analysis repeated. The results based on this revised model are presented here. A nonlinear mixed-effects model was developed with Phoenix® NLME™ software, version 1.2, 2012 (Certara L. P. Pharsight, St. Louis, Mo.) using first-order maximum likelihood estimation, and a 2-compartment structure model was fitted to the plasma concentration time data. The First Order Conditional Estimation-Extended Least Squares (FOCE-ELS) engine was used for model fitting. The software R (R Foundation for Statistical Computing, Vienna, Austria, 2013) was used to generate tables of post hoc PK parameters and descriptive statistics.
Sources of variability, that may affect drug exposure, were identified using correlation plots of individual random effects (ETA with mean 0 and estimated variance ? ^2) of parameters such as systemic clearance (CL) and central volume of distribution (Vc) versus covariates. Extrinsic covariates analyzed included dose levels, drug-drug interactions between ceftolozane and tazobactam, and disease status (bacterial infections). Intrinsic covariates analyzed included body weight, age, sex, ethnicity, and baseline calculated CrCL). […] Renal impairment was categorized as normal (CrCL≥90 mL/min), mild (CrCL≥50-<90 mL/min), moderate (CrCL≥30-<50 mL/min), and severe (CrCL≥15-<30 mL/min).
Scatter plots were used to examine the effect of continuous variables and box plots were used for categorical variables. […] Covariates were introduced in a multiplicative order using a power model standardized by the median for continuous covariates and a linear model with an exponentiated factor relative to the reference for categorical covariates.
Final population PK model: evaluation and performance. The final population-PK models for ceftolozane and tazobactam were evaluated using standard diagnostics, goodness-of-fit criteria, nonparametric bootstrap resampling, and visual predictive check (VPC).

[3] = subjects with normal renal function; cited from earlier work

- AUC(0-t) (clinical; human, in vivo): 172 µg·h/mL
- CL renal (clinical; human, in vivo): 56.8 to 112 mL/min
- Cmax, mean (CV %) (clinical; human, in vivo): 74.4 (14) μg/mL
- clearance (clinical; human, in vivo): 68.3 to 112 mL/min
- t1/2, mean (CV %) (clinical; human, in vivo): 3.12 (22) h
- tmax, median (minimum, maximum) (clinical; human, in vivo): 1.07 (1.0, 1.1) h
- Cmax (clinical; human, in vivo): 69100 ng/mL
- half-life (clinical; human, in vivo, t1/2, mean (CV %)): 2.77 h
- half-life (clinical; human, in vivo, terminal elimination half-life (t1/2β)): ~2.5 h
- Tmax (clinical; human, in vivo): 1.02 h
- excreted in the urine as unchanged parent drug (clinical; male, human, in vivo, iv): greater than 95%
- fraction unbound [1]: 0.79
- Exponent of the relationship between CLcr and CL ([2]; Table 31 model): 0.75
- Exponent of the relationship between weight and CL ([2]; Table 31 model): 0.76
- Interindividual variability of CL, estimate ([2]; Table 31 model): 34.3%
- Interindividual variability of Vc, estimate ([2]; Table 31 model): 34.0%
- Proportional shift in CL for infected patients ([2]; Table 31 model): 1.26
- Proportional shift in Vc for infected patients ([2]; Table 31 model): 1.37
- Vc, population estimate ([2]; Table 31 model): 11.8 L
- CLd, population estimate ([2]; Table 31 model): 0.884 L/h
- Vc (L)^d, population estimate ([2]; Table 31 model): 2.88 L
- Vc, population PK ([2]; cIAI): 18.2 L
- Vc, population PK ([2]; cUTI, at 74 kg body weight): 13.8 L
- between-subject variability (BSV) of CL ([2]; final model): 33.0%
- CL, population estimate ([2]; human): 5.14 L/h
- inter-compartment clearance (CL2), population PK ([2]; human): about 1 L/h
- volume of distribution in the peripheral compartment (Vp), population PK ([2]; human): about 3 L
- CL higher than in healthy subjects ([2]; patients with cUTI and cIAI): about 20%
SMILES: Cn1c(N)c(NC(=O)NCCN)c[n+]1CC1=C(C(=O)O)N2C(=O)[C@@H](NC(=O)/C(=N\OC(C)(C)C(=O)O)c3nsc(N)n3)[C@H]2SC1 [Ceftolozane, (6R,7R)-3-[(5-amino-4-{[(2-aminoethyl)carbamoyl]amino}-1-methyl-1H-pyrazol-2-ium-2-yl)methyl]-7-({(2Z)-2-(5-amino-1,2,4-thiadiazol-3-yl)-2-[(1-carboxy-1-methylethoxy)imino]acetyl}amino)-8-oxo-5-thia-1-azabicyclo[4.2.0]oct-2-ene-2-carboxylate]
- median daily steady-state AUC [3]: 690 µg·h/mL

SMILES: C[C@]1(Cn2ccnn2)[C@H](C(=O)O)N2C(=O)C[C@H]2S1(=O)=O [Tazobactam, tazobactam]
- excreted in the urine as the unchanged parent drug (clinical; healthy volunteers): 80%
- half-life (clinical; human, in vivo, intravenous, terminal elimination half-life (t1/2β), healthy volunteers / normal renal function): ~1 h
- AUC(0-t) (clinical; human, plasma, intravenous, 1.5 g): 24.4 µg·h/mL
- Cmax (clinical; human, plasma, intravenous, 1.5 g, 1.5 g q8h 1-hour infusion, healthy adults, Day 1): 18400 ng/mL
- Cmax (clinical; human, plasma, intravenous, 1.5 g, 1.5 g q8h 1-hour infusion, healthy adults, Day 10): 18000 ng/mL
- half-life (clinical; human, plasma, intravenous, 1.5 g, t1/2, mean (CV %), 1.5 g q8h, healthy adults, Day 10): 1.03 h
- Tmax (clinical; human, plasma, intravenous, 1.5 g, 1.5 g q8h, healthy adults, Day 1): 1.02 h
- half-life (clinical; human, plasma, intravenous, terminal elimination half-life (t1/2β), healthy volunteers / normal renal function): ~1 h
- excreted in the urine as unchanged parent drug (clinical; single 1.5 g IV dose of CXA-201, healthy male adults): More than 80%
- fraction unbound [1]: 0.7
- Exponent of the relationship between CLcr and CL ([2]; Table 31 model): 0.67
- Interindividual variability of CL, estimate ([2]; Table 31 model): 50.2%
- Interindividual variability of Vc, estimate ([2]; Table 31 model): 52.5%
- Proportional shift in Vc for infected patients ([2]; Table 31 model): 1.47
- Vc, population estimate ([2]; Table 31 model): 14.2 L
- CLd, population estimate ([2]; Table 31 model): 3.13 L/h
- Vc (L)^d, population estimate ([2]; Table 31 model): 4.29 L
- power function of baseline CrCL on CL ([2]; [CrCL/115] exponent): 0.67
- CL, population estimate ([2]; final model): 18.0 L/h
- between-subject variability (BSV) of CL ([2]; final model): 50.2%
- between-subject variability (BSV) of Vc ([2]; final model): 52.5%
- inter-compartment clearance (CL2), population PK ([2]; final model): 3.13 L/h
- volume of distribution in the peripheral compartment (Vp), population PK ([2]; final model): 4.29 L
- CL, population estimate ([2]; previously-developed population PK model (Table 31)): 18.0 L/h
- Vc, population estimate ([2]; subjects without infection): 14.2 L
- median daily steady-state AUC [3]: 89.4 µg·h/mL
